From PubChem BioAssay AID602483 (Southern Research Specialized Biocontainment Screening …, 2012)
Activity calls are given as the source filed them. No rule for the calls is given here.

Key:
[1] = test system: HEp-2 cell viability, cytotoxicity; test: HEp-2 cell cytotoxicity, dose response, cytotoxicity control, set 1 (AID 602483)
[2] = as above; details: HEp-2 cell viability, cytotoxicity; at 50 µM (top of the series)

Compound | CC50 [1] [µM] | viability [2]
CN(C(=O)Cc1cccs1)c1nc2c(s1)CCCC2 | 5.67 | –
CCN1CCN(Cc2nc3ccc([N+](=O)[O-])cc3c(=O)n2-c2ccccc2F)CC1 | – | 72.6% (inactive)
CN1CCN(Cc2nc3ccc([N+](=O)[O-])cc3c(=O)n2-c2ccccc2F)CC1 | – | 70.1% (inactive)
